For the experiment, the system named is MV-4-11 cells. Kind of experiment: Gene expression microarray analysis (Affymetrix PrimeView) and GSEA. In kind it is cell-based, human. Details: RFU PODN (11730768_x_at) / Fold change /veh PODN (11730768_x_at) / RFU LINC00158 (11744669_a_at) / Fold change /veh LINC00158 (11744669_a_at) / RFU DUSP10 (11751237_a_at) / Fold change /veh DUSP10 (11751237_a_at) / RFU ID3 (11757404_x_at) / Fold change /veh ID3 (11757404_x_at) / RFU PLEKHG5 (11737974_s_at) / Fold change /veh PLEKHG5 (11737974_s_at) / RFU LRRC4B (11730491_at) / Fold change /veh LRRC4B (11730491_at) / RFU GIMAP4 (11747438_a_at) / Fold change /veh GIMAP4 (11747438_a_at) / RFU KRT8 (11758183_x_at) / Fold change /veh KRT8 (11758183_x_at) / RFU CNN1 (11734310_a_at) / Fold change /veh CNN1 (11734310_a_at) / RFU VPS37D (11726825_at) / Fold change /veh VPS37D (11726825_at) / RFU C10orf10 (11716522_x_at) / Fold change /veh C10orf10 (11716522_x_at) / RFU KIR2DL2 /// KIR2DL4 /// KIR2DL5A /// KIR2DL5B /// KIR2DS1 /// KIR2DS2 /// KIR2DS3 /// KIR2DS4 /// KIR3DL3 /// KIR3DL3 /// KIR3DS1 (11738374_at) / Fold change /veh KIR2DL2 /// KIR2DL4 /// KIR2DL5A /// KIR2DL5B /// KIR2DS1 /// KIR2DS2 /// KIR2DS3 /// KIR2DS4 /// KIR3DL3 /// KIR3DL3 /// KIR3DS1 (11738374_at) / RFU C1QL1 (11718748_at) / Fold change /veh C1QL1 (11718748_at) / RFU TMPRSS4 (11747572_a_at) / Fold change /veh TMPRSS4 (11747572_a_at) / RFU HAMP (11756126_x_at) / Fold change /veh HAMP (11756126_x_at) / RFU RNFT2 (11725882_a_at) / Fold change /veh RNFT2 (11725882_a_at) / RFU NR4A2 (11747474_a_at) / Fold change /veh NR4A2 (11747474_a_at) / RFU ABCC12 (11746883_a_at) / Fold change /veh ABCC12 (11746883_a_at) / RFU TMEM136 (11760407_x_at) / Fold change /veh TMEM136 (11760407_x_at) / RFU CLDN22 /// WWC2 (11732394_at) / Fold change /veh CLDN22 /// WWC2 (11732394_at) / RFU HLA-DPB1 (11760878_x_at) / Fold change /veh HLA-DPB1 (11760878_x_at) / RFU SPINT1 (11716480_a_at) / Fold change /veh SPINT1 (11716480_a_at) / RFU GAP43 (11754022_s_at) / Fold change /veh GAP43 (11754022_s_at) / RFU A4GNT (11735810_at) / Fold change /veh A4GNT (11735810_at) / RFU PRB3 (11715151_x_at) / Fold change /veh PRB3 (11715151_x_at) / RFU TUBB4B (11761932_at) / Fold change /veh TUBB4B (11761932_at) / RFU CAPN14 (11732068_a_at) / Fold change /veh CAPN14 (11732068_a_at) / RFU TMCC2 (11721928_a_at) / Fold change /veh TMCC2 (11721928_a_at) / RFU IRGQ (11745062_a_at) / Fold change /veh IRGQ (11745062_a_at) / RFU FAM174B (11720279_a_at) / Fold change /veh FAM174B (11720279_a_at) / RFU TMPRSS4 (11748680_a_at) / Fold change /veh TMPRSS4 (11748680_a_at) / RFU FAM212B (11763350_a_at) / Fold change /veh FAM212B (11763350_a_at) / RFU PLEKHG5 (11743358_a_at) / Fold change /veh PLEKHG5 (11743358_a_at) / RFU ZSCAN30 (11745921_a_at) / Fold change /veh ZSCAN30 (11745921_a_at) / RFU CMKLR1 (11741424_a_at) / Fold change /veh CMKLR1 (11741424_a_at) / RFU LOC101060620 /// MAPK8IP1 (11723275_at) / Fold change /veh LOC101060620 /// MAPK8IP1 (11723275_at) / RFU SPTSSB (11747773_x_at) / Fold change /veh SPTSSB (11747773_x_at) / RFU PRSS12 (11739890_at) / Fold change /veh PRSS12 (11739890_at) / RFU BIN1 (11741810_x_at) / Fold change /veh BIN1 (11741810_x_at) / RFU WNT11 (11732464_a_at) / Fold change /veh WNT11 (11732464_a_at) / RFU C10orf10 (11716521_a_at) / Fold change /veh C10orf10 (11716521_a_at) / RFU C5orf56 (11738089_at) / Fold change /veh C5orf56 (11738089_at) / RFU CYB561 (11721691_x_at) / Fold change /veh CYB561 (11721691_x_at) / RFU ANKRD19P (11752326_a_at) / Fold change /veh ANKRD19P (11752326_a_at) / RFU OR2T12 /// OR2T33 /// OR2T8 (11738714_s_at) / Fold change /veh OR2T12 /// OR2T33 /// OR2T8 (11738714_s_at) / RFU VCAN (11748164_a_at) / Fold change /veh VCAN (11748164_a_at) / RFU JSRP1 (11732532_at) / Fold change /veh JSRP1 (11732532_at) / RFU KRTAP10-11 (11738290_x_at) / Fold change /veh KRTAP10-11 (11738290_x_at) / RFU MYO3A (11730013_a_at) / Fold change /veh MYO3A (11730013_a_at) / RFU EBF3 (11725865_a_at) / Fold change /veh EBF3 (11725865_a_at) / RFU CAMK2N1 (11719241_x_at) / Fold change /veh CAMK2N1 (11719241_x_at) / RFU C5orf56 (11738088_a_at) / Fold change /veh C5orf56 (11738088_a_at) / RFU OLFML3 (11715873_a_at) / Fold change /veh OLFML3 (11715873_a_at) / RFU LOC100653217 /// NTM (11731650_a_at) / Fold change /veh LOC100653217 /// NTM (11731650_a_at) / RFU MAPK11 (11762145_a_at) / Fold change /veh MAPK11 (11762145_a_at) / RFU FIZ1 (11724087_x_at) / Fold change /veh FIZ1 (11724087_x_at) / RFU OASL (11726364_x_at) / Fold change /veh OASL (11726364_x_at) / RFU SOX15 (11748057_x_at) / Fold change /veh SOX15 (11748057_x_at) / RFU CD79A (11719716_a_at) / Fold change /veh CD79A (11719716_a_at) / RFU HIST1H1D (11736915_at) / Fold change /veh HIST1H1D (11736915_at) / RFU CASKIN2 (11723855_a_at) / Fold change /veh CASKIN2 (11723855_a_at) / RFU LOC730098 (11760151_x_at) / Fold change /veh LOC730098 (11760151_x_at) / RFU OR4N2 (11742367_at) / Fold change /veh OR4N2 (11742367_at) / RFU PRRT2 (11749266_a_at) / Fold change /veh PRRT2 (11749266_a_at) / RFU SNX32 (11753110_a_at) / Fold change /veh SNX32 (11753110_a_at) / RFU CDHR5 (11726645_a_at) / Fold change /veh CDHR5 (11726645_a_at) / RFU RCAN1 (11760418_a_at) / Fold change /veh RCAN1 (11760418_a_at) / RFU FAM167A (11723789_a_at) / Fold change /veh FAM167A (11723789_a_at) / RFU FAM26E (11764081_at) / Fold change /veh FAM26E (11764081_at) / RFU ISYNA1 (11749810_s_at) / Fold change /veh ISYNA1 (11749810_s_at) / RFU ACY1 (11761880_at) / Fold change /veh ACY1 (11761880_at) / RFU 11764098_at / Fold change /veh 11764098_at / RFU SAMD14 (11745864_x_at) / Fold change /veh SAMD14 (11745864_x_at) / RFU NPB (11741838_a_at) / Fold change /veh NPB (11741838_a_at) / RFU TMPRSS6 (11731388_a_at) / Fold change /veh TMPRSS6 (11731388_a_at) / RFU KRTAP10-2 (11738614_at) / Fold change /veh KRTAP10-2 (11738614_at) / RFU ARHGAP8 /// PRR5-ARHGAP8 (11727945_x_at) / Fold change /veh ARHGAP8 /// PRR5-ARHGAP8 (11727945_x_at) / RFU KRTAP5-7 /// NADSYN1 (11734609_at) / Fold change /veh KRTAP5-7 /// NADSYN1 (11734609_at) / RFU RASL12 (11751679_a_at) / Fold change /veh RASL12 (11751679_a_at) / RFU CDKN2B (11736163_a_at) / Fold change /veh CDKN2B (11736163_a_at) / RFU PRF1 (11729649_at) / Fold change /veh PRF1 (11729649_at) / RFU, ZNF638 /// ZNF638-IT1 / Fold change vs veh, ZNF638 /// ZNF638-IT1 / RFU, PANK3 / Fold change vs veh, PANK3 / RFU, SH3YL1 / Fold change vs veh, SH3YL1 / RFU, ZEB2 / Fold change vs veh, ZEB2 / RFU, NRIP1 / Fold change vs veh, NRIP1 / RFU, PTTG1IP / Fold change vs veh, PTTG1IP / RFU, CAPN2 / Fold change vs veh, CAPN2 / RFU, MED14 / Fold change vs veh, MED14 / RFU, SNORA58 / Fold change vs veh, SNORA58 / RFU, C1orf63 / Fold change vs veh, C1orf63 / RFU, LRRFIP1 / Fold change vs veh, LRRFIP1 / RFU, NDUFAF7 / Fold change vs veh, NDUFAF7 / RFU, SLC12A2 / Fold change vs veh, SLC12A2 / RFU, IBTK / Fold change vs veh, IBTK / RFU, ESF1 / Fold change vs veh, ESF1 / Fold change vs veh, TMEM50B / RFU, TAOK1 / Fold change vs veh, TAOK1 / RFU, ACBD3 / Fold change vs veh, ACBD3 / RFU, TMA16 / Fold change vs veh, TMA16 / RFU, RWDD3 / Fold change vs veh, RWDD3 / RFU, BCAT1 / Fold change vs veh, BCAT1 / RFU, EDEM3 / Fold change vs veh, EDEM3 / RFU, TMEM33 / Fold change vs veh, TMEM33 / RFU, WDR75 / Fold change vs veh, WDR75 / RFU, AHCTF1 / Fold change vs veh, AHCTF1 / RFU, TFRC / Fold change vs veh, TFRC / RFU, ZDHHC17 / Fold change vs veh, ZDHHC17 / RFU, NOM1 / Fold change vs veh, NOM1 / RFU, ARL8B / Fold change vs veh, ARL8B / RFU, ZBTB11 / Fold change vs veh, ZBTB11 / RFU, TAMM41 / Fold change vs veh, TAMM41 / RFU, KIAA1704 /// LOC100996395 / Fold change vs veh, KIAA1704 /// LOC100996395 / RFU, ING1 / Fold change vs veh, ING1 / RFU, TRMT61B / Fold change vs veh, TRMT61B / RFU, FUBP3 / Fold change vs veh, FUBP3 / RFU, TP53 / Fold change vs veh, TP53 / RFU, TNKS2 / Fold change vs veh, TNKS2 / RFU, ZFP14 / Fold change vs veh, ZFP14 / RFU, ACTR2 / Fold change vs veh, ACTR2 / RFU, PPP3R1 / Fold change vs veh, PPP3R1 / RFU, PIK3R1 / Fold change vs veh, PIK3R1 / RFU, HNRNPA1 / Fold change vs veh, HNRNPA1 / RFU, RNF170 / Fold change vs veh, RNF170 / RFU, ZNF28 / Fold change vs veh, ZNF28 / RFU, RNGTT / Fold change vs veh, RNGTT / RFU, OGT / Fold change vs veh, OGT / RFU, BRD1 / Fold change vs veh, BRD1 / RFU, MARS / Fold change vs veh, MARS / RFU, ZNF655 / Fold change vs veh, ZNF655 / RFU, FAHD1 / Fold change vs veh, FAHD1 / RFU, BDP1 / Fold change vs veh, BDP1 / RFU, LRRCC1 / Fold change vs veh, LRRCC1 / RFU, ARID1A / Fold change vs veh, ARID1A / RFU, ZNF146 / Fold change vs veh, ZNF146 / RFU, ZNF330 / Fold change vs veh, ZNF330 / RFU, GPN3 / Fold change vs veh, GPN3 / RFU, C9orf123 / Fold change vs veh, C9orf123 / RFU, N4BP2L2 / Fold change vs veh, N4BP2L2 / RFU, ARFIP1 / Fold change vs veh, ARFIP1 / RFU, FAM179B / Fold change vs veh, FAM179B / RFU, BCL10 / Fold change vs veh, BCL10 / RFU, UHRF1BP1L / Fold change vs veh, UHRF1BP1L / RFU, BET1 / Fold change vs veh, BET1 / RFU, CNOT2 / Fold change vs veh, CNOT2 / RFU, ZNF268 / Fold change vs veh, ZNF268 / Fold change vs veh, ZNF507 / RFU, DGCR2 / Fold change vs veh, DGCR2 / RFU, WDSUB1 / Fold change vs veh, WDSUB1 / Fold change vs veh, HSP90B1 /// MIR3652 / RFU, ADSS / Fold change vs veh, ADSS / RFU, GK / Fold change vs veh, GK / RFU, ZNF148 / Fold change vs veh, ZNF148 / RFU, TAF9 / Fold change vs veh, TAF9 / RFU, SLC1A5 / Fold change vs veh, SLC1A5 / RFU, SLMO2 / Fold change vs veh, SLMO2 / RFU, ABCC4 / Fold change vs veh, ABCC4 / RFU, LOC101060439 /// RAP1B / Fold change vs veh, LOC101060439 /// RAP1B / RFU, RFX7 / Fold change vs veh, RFX7 / RFU, GTPBP10 / Fold change vs veh, GTPBP10 / RFU, CNEP1R1 / Fold change vs veh, CNEP1R1 / RFU, BIVM-ERCC5 /// ERCC5 / Fold change vs veh, BIVM-ERCC5 /// ERCC5 / RFU, ILF3 / Fold change vs veh, ILF3 / RFU 11762660_at / Fold change /veh 11762660_at / RFU VCAN (11757783_s_at) / Fold change /veh VCAN (11757783_s_at) / RFU DDX43 (11728927_at) / Fold change /veh DDX43 (11728927_at) / RFU KRT8 (11758188_x_at) / Fold change /veh KRT8 (11758188_x_at) / RFU NKD1 (11759106_at) / Fold change /veh NKD1 (11759106_at) / RFU SRD5A1 (11742802_a_at) / Fold change /veh SRD5A1 (11742802_a_at) / RFU TPSAB1 /// TPSB2 (11721975_s_at) / Fold change /veh TPSAB1 /// TPSB2 (11721975_s_at) / RFU GSTM3 (11746129_a_at) / Fold change /veh GSTM3 (11746129_a_at) / RFU IL23R (11737362_x_at) / Fold change /veh IL23R (11737362_x_at) / RFU TMEM51 (11727254_a_at) / Fold change /veh TMEM51 (11727254_a_at) / RFU PIWIL2 (11732686_x_at) / Fold change /veh PIWIL2 (11732686_x_at) / RFU ORM1 (11744905_x_at) / Fold change /veh ORM1 (11744905_x_at) / RFU CCDC152 (11743942_at) / Fold change /veh CCDC152 (11743942_at) / RFU ECM1 (11717891_a_at) / Fold change /veh ECM1 (11717891_a_at) / RFU IL23R (11748794_a_at) / Fold change /veh IL23R (11748794_a_at) / RFU TNFAIP8L3 (11732012_x_at) / Fold change /veh TNFAIP8L3 (11732012_x_at) / RFU MBOAT4 (11741988_at) / Fold change /veh MBOAT4 (11741988_at) / RFU 11764193_at / Fold change /veh 11764193_at / RFU TMEM53 (11763286_at) / Fold change /veh TMEM53 (11763286_at) / RFU MAGEB2 (11727129_at) / Fold change /veh MAGEB2 (11727129_at) / RFU TMEM200A (11744735_a_at) / Fold change /veh TMEM200A (11744735_a_at) / RFU CCDC152 (11751479_a_at) / Fold change /veh CCDC152 (11751479_a_at) / RFU FAM211A (11726209_a_at) / Fold change /veh FAM211A (11726209_a_at) / RFU RGS16 (11746705_a_at) / Fold change /veh RGS16 (11746705_a_at) / RFU VCAN (11755009_s_at) / Fold change /veh VCAN (11755009_s_at) / RFU RHOB (11743442_s_at) / Fold change /veh RHOB (11743442_s_at) / RFU RGS16 (11720943_a_at) / Fold change /veh RGS16 (11720943_a_at) / RFU RGS16 (11720944_at) / Fold change /veh RGS16 (11720944_at) / RFU, VPS4B / Fold change vs veh, VPS4B / RFU, CREB1 / Fold change vs veh, CREB1 / RFU, DNAJC13 / Fold change vs veh, DNAJC13 / RFU, GNAQ / Fold change vs veh, GNAQ / RFU, CDK5R1 / Fold change vs veh, CDK5R1 / RFU, ZRANB3 / Fold change vs veh, ZRANB3 / RFU, CUL4A / Fold change vs veh, CUL4A / RFU, CCNY / Fold change vs veh, CCNY / RFU, UFL1 / Fold change vs veh, UFL1 / RFU, COG3 / Fold change vs veh, COG3 / RFU, DIAPH2 / Fold change vs veh, DIAPH2 / RFU, SKA2 / Fold change vs veh, SKA2 / RFU, AFF3 / Fold change vs veh, AFF3 / RFU, LMF1 / Fold change vs veh, LMF1 / RFU, IPO11 / Fold change vs veh, IPO11 / RFU, DFFB / Fold change vs veh, DFFB / RFU, FOXP1 / Fold change vs veh, FOXP1 / RFU, CARD8 / Fold change vs veh, CARD8 / RFU, STRN3 / Fold change vs veh, STRN3 / RFU, ADK / Fold change vs veh, ADK / RFU, RASSF2 / Fold change vs veh, RASSF2 / RFU, WIPF1 / Fold change vs veh, WIPF1 / RFU, LARP1B / Fold change vs veh, LARP1B / RFU, RASA1 / Fold change vs veh, RASA1 / RFU, RB1 / Fold change vs veh, RB1 / RFU, PPFIA1 / Fold change vs veh, PPFIA1 / RFU, MAT2A / Fold change vs veh, MAT2A / RFU, CCT5 / Fold change vs veh, CCT5 / RFU, WDR92 / Fold change vs veh, WDR92 / RFU, CUX1 / Fold change vs veh, CUX1 / RFU, TTC7A / Fold change vs veh, TTC7A / RFU, TMEM135 / Fold change vs veh, TMEM135 / RFU, DEPTOR / Fold change vs veh, DEPTOR / RFU, CPM / Fold change vs veh, CPM / RFU, DNAJB6 / Fold change vs veh, DNAJB6 / RFU, CACNA2D3 / Fold change vs veh, CACNA2D3 / RFU, DTX4 / Fold change vs veh, DTX4 / RFU, TFCP2 / Fold change vs veh, TFCP2 / RFU, GMCL1 /// GMCL1P1 / Fold change vs veh, GMCL1 /// GMCL1P1 / RFU, AEBP2 / Fold change vs veh, AEBP2 / RFU, SNHG1 /// SNORD22 /// SNORD25 /// SNORD26 /// SNORD27 /// SNORD28 /// SNORD29 /// SNORD31 / Fold change vs veh, SNHG1 /// SNORD22 /// SNORD25 /// SNORD26 /// SNORD27 /// SNORD28 /// SNORD29 /// SNORD31 / Fold change (Aza/veh), C12orf56 (ProbeSet 11735607_a_at) / Fold change (ACY-1035/veh), C12orf56 (ProbeSet 11735607_a_at) / Fold change (Aza/veh), FGFR1OP (ProbeSet 11751329_s_at) / Fold change (ACY-1035/veh), FGFR1OP (ProbeSet 11751329_s_at) / Fold change (Aza/veh), VPS36 (ProbeSet 11739960_a_at) / Fold change (ACY-1035/veh), VPS36 (ProbeSet 11739960_a_at) / RFU SYPL1 (11715823_x_at) / Fold change /veh SYPL1 (11715823_x_at) / RFU IGFBP7 (11715501_s_at) / Fold change /veh IGFBP7 (11715501_s_at) / RFU REEP3 (11722064_at) / Fold change /veh REEP3 (11722064_at) / RFU IGLL1 (11728026_x_at) / Fold change /veh IGLL1 (11728026_x_at): dose or concentration left out as unconfirmed. The conditions noted are these: ProbeSet 11730501_a_at; LIST D.

The values that follow come from paper PMC5218480 (PLoS ONE, 2017).

The structures appear in SMILES notation.

Regarding `Nc1ncn([C@@H]2O[C@H](CO)[C@@H](O)[C@H]2O)c(=O)n1` [azacitidine], the “Fold change vs veh, CACNA2D3” value came to 0.63.
